US12043599B2, “Herbicidal compounds” (SYNGENTA PARTICIPATIONS AG, priority 2018, dated 2024)

Experiments:
Type in all cases: in vivo
Settings in all cases: 250 g/h, evaluated after 13 days
[1] = tested on: Setaria faberi (SETFA); assay: Post-emergence herbicidal glasshouse test, percentage damage
Summary of the method: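 Percentage damage was scored 13 days after treatment on a five-point scale (1=0-19% to 5=80-100%). Treatments were post-emergence sprays on 8-day-old wheat, barley and SETFA plants in a glasshouse (24/16 °C day/night, 14 h light, 65% humidity), using acetone/water 50:50 with 0.5% Tween 20 at the stated rates. Wheat additionally received cloquintocet-mexyl safener at 50 g/ha.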

[2] = tested on: Setaria faberi (SETFA); assay: Pre-emergence herbicidal glasshouse test, percentage damage
Summary of the method: (§1)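 Glasshouse, 24/16 °C, 14 h photoperiod, 65% humidity. Sprayed at 250 g/h pre- (1 d) or post-emergence (8 d); evaluated 13 d after spraying, 5-point damage scale.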

[3] = tested on: Avena fatua (AVEFA); assay: as above
Summary of the method: as §1

[4] = tested on: Alopecurus myosuroides (ALOMY); assay: as above
Summary of the method: as §1

[5] = tested on: Lolium perenne (LOLPE); assay: as above
Summary of the method: as §1

[6] = tested on: Echinochloa crus-galli (ECHCG); assay: as above
Summary of the method: as §1

[7] = tested on: Avena fatua (AVEFA); assay: Post-emergence herbicidal glasshouse test, percentage damage
Summary of the method: as §1

[8] = tested on: Alopecurus myosuroides (ALOMY); assay: as above
Summary of the method: as §1

[9] = tested on: Lolium perenne (LOLPE); assay: as above
Summary of the method: as §1

[10] = tested on: Echinochloa crus-galli (ECHCG); assay: as above
Summary of the method: as §1

CC#Cc1cc(C)c(C2C(=O)CC3(CCN(C(=O)CCC#N)CC3)CC2=O)c(C)c1 [Compound A198, 4-[9-(2,6-dimethyl-4-prop-1-ynyl-phenyl)-8,10-dioxo-3-azaspiro[5.5]undecan-3-yl]-4-oxo-butanenitrile]
SETFA POST percentage damage (five point scale) [1]: 5 (5=80-100%) | SETFA PRE percentage damage (five point scale) [2]: 5 (5=80-100%) | AVEFA PRE percentage damage (five point scale) [3]: 4 (4=60-79%) | ALOMY PRE percentage damage (five point scale) [4]: 5 (5=80-100%) | LOLPE PRE percentage damage (five point scale) [5]: 5 (5=80-100%) | ECHCG PRE percentage damage (five point scale) [6]: 5 (5=80-100%) | AVEFA POST percentage damage (five point scale) [7]: 5 (5=80-100%) | ALOMY POST percentage damage (five point scale) [8]: 5 (5=80-100%) | LOLPE POST percentage damage (five point scale) [9]: 5 (5=80-100%) | ECHCG POST percentage damage (five point scale) [10]: 5 (5=80-100%)

CC#Cc1cc(C)c(C2C(=O)CC3(CCN(C(=O)Nc4ccccn4)CC3)CC2=O)c(C)c1 [Compound A41]
SETFA POST percentage damage (five point scale) [1]: 5 (5=80-100%) | SETFA PRE percentage damage (five point scale) [2]: 5 (5=80-100%) | AVEFA PRE percentage damage (five point scale) [3]: 4 (4=60-79%) | ALOMY PRE percentage damage (five point scale) [4]: 4 (4=60-79%) | LOLPE PRE percentage damage (five point scale) [5]: 5 (5=80-100%) | ECHCG PRE percentage damage (five point scale) [6]: 5 (5=80-100%) | AVEFA POST percentage damage (five point scale) [7]: 5 (5=80-100%) | ALOMY POST percentage damage (five point scale) [8]: 4 (4=60-79%) | LOLPE POST percentage damage (five point scale) [9]: 5 (5=80-100%) | ECHCG POST percentage damage (five point scale) [10]: 5 (5=80-100%)

CC#Cc1cc(C)c(C2C(=O)CC3(CCN(C(=O)c4ncccn4)CC3)CC2=O)c(C)c1 [Compound A19]
SETFA POST percentage damage (five point scale) [1]: 5 (5=80-100%) | SETFA PRE percentage damage (five point scale) [2]: 5 (5=80-100%) | AVEFA PRE percentage damage (five point scale) [3]: 5 (5=80-100%) | ALOMY PRE percentage damage (five point scale) [4]: 5 (5=80-100%) | LOLPE PRE percentage damage (five point scale) [5]: 5 (5=80-100%) | ECHCG PRE percentage damage (five point scale) [6]: 5 (5=80-100%) | AVEFA POST percentage damage (five point scale) [7]: 5 (5=80-100%) | ALOMY POST percentage damage (five point scale) [8]: 5 (5=80-100%) | LOLPE POST percentage damage (five point scale) [9]: 5 (5=80-100%) | ECHCG POST percentage damage (five point scale) [10]: 5 (5=80-100%)

CC#Cc1cc(C)c(C2C(=O)CC3(CCN(C(=O)NC(=O)C(C)(C)C)CC3)CC2=O)c(OC)c1 [Compound A77]
SETFA POST percentage damage (five point scale) [1]: 5 (5=80-100%) | SETFA PRE percentage damage (five point scale) [2]: 5 (5=80-100%) | AVEFA PRE percentage damage (five point scale) [3]: 5 (5=80-100%) | ALOMY PRE percentage damage (five point scale) [4]: 5 (5=80-100%) | LOLPE PRE percentage damage (five point scale) [5]: 5 (5=80-100%) | ECHCG PRE percentage damage (five point scale) [6]: 5 (5=80-100%) | AVEFA POST percentage damage (five point scale) [7]: 5 (5=80-100%) | ALOMY POST percentage damage (five point scale) [8]: 5 (5=80-100%) | LOLPE POST percentage damage (five point scale) [9]: 5 (5=80-100%) | ECHCG POST percentage damage (five point scale) [10]: 5 (5=80-100%)

CC#Cc1cc(C)c(C2C(=O)CC3(CCN(C(=O)COCCOC)CC3)CC2=O)c(C)c1 [Compound A147]
SETFA POST percentage damage (five point scale) [1]: 5 (5=80-100%) | SETFA PRE percentage damage (five point scale) [2]: 5 (5=80-100%) | AVEFA PRE percentage damage (five point scale) [3]: 3 (3=40-59%) | ALOMY PRE percentage damage (five point scale) [4]: 4 (4=60-79%) | LOLPE PRE percentage damage (five point scale) [5]: 5 (5=80-100%) | ECHCG PRE percentage damage (five point scale) [6]: 5 (5=80-100%) | AVEFA POST percentage damage (five point scale) [7]: 5 (5=80-100%) | ALOMY POST percentage damage (five point scale) [8]: 5 (5=80-100%) | LOLPE POST percentage damage (five point scale) [9]: 5 (5=80-100%) | ECHCG POST percentage damage (five point scale) [10]: 5 (5=80-100%)

CC#Cc1cc(C)c(C2C(=O)CC3(CCN(C(=O)c4ccc(C#N)nc4)CC3)CC2=O)c(C)c1 [Compound A191]
SETFA POST percentage damage (five point scale) [1]: 5 (5=80-100%) | SETFA PRE percentage damage (five point scale) [2]: 5 (5=80-100%) | AVEFA PRE percentage damage (five point scale) [3]: 4 (4=60-79%) | ALOMY PRE percentage damage (five point scale) [4]: 2 (2=20-39%) | LOLPE PRE percentage damage (five point scale) [5]: 5 (5=80-100%) | ECHCG PRE percentage damage (five point scale) [6]: 5 (5=80-100%) | AVEFA POST percentage damage (five point scale) [7]: 5 (5=80-100%) | ALOMY POST percentage damage (five point scale) [8]: 5 (5=80-100%) | LOLPE POST percentage damage (five point scale) [9]: 5 (5=80-100%) | ECHCG POST percentage damage (five point scale) [10]: 5 (5=80-100%)

CC#Cc1cc(C)c(C2C(=O)CC3(CCN(C(=O)NC(=O)c4ncc(C(F)(F)F)cc4Cl)CC3)CC2=O)c(C)c1 [Compound A158]
SETFA POST percentage damage (five point scale) [1]: 5 (5=80-100%) | SETFA PRE percentage damage (five point scale) [2]: 5 (5=80-100%) | AVEFA PRE percentage damage (five point scale) [3]: 2 (2=20-39%) | ALOMY PRE percentage damage (five point scale) [4]: 2 (2=20-39%) | LOLPE PRE percentage damage (five point scale) [5]: 3 (3=40-59%) | ECHCG PRE percentage damage (five point scale) [6]: 5 (5=80-100%) | AVEFA POST percentage damage (five point scale) [7]: 5 (5=80-100%) | ALOMY POST percentage damage (five point scale) [8]: 3 (3=40-59%) | LOLPE POST percentage damage (five point scale) [9]: 5 (5=80-100%) | ECHCG POST percentage damage (five point scale) [10]: 5 (5=80-100%)
